Assay results published in article PMC10763615, “Identification and engineering of potent cyclic peptides with selective or promiscuous binding through biochemical profiling and bioinformatic data analysis” (RSC Chemical Biology, 2023).
pKd: −log10 of the molar value. Like-named read-outs stand apart in the source and are kept apart here. Positions of bridges follow the written chain, without caps; N, C: chain ends. Residues, ends and D or L forms follow the SMILES beside them.

Legend:
Type in all cases: binding
FGF-R3C ECD = biological target: T1, FGF-R3C ECD (Homo sapiens, UniProt P22607); experiment: biochemical; design: DNA constructs for the extracellular domain (ECD) of human FGF-; HPC4 (C); made in house; host or cells: HEK 293-6E
T1 sequence (P22607 23-375 limits assumed): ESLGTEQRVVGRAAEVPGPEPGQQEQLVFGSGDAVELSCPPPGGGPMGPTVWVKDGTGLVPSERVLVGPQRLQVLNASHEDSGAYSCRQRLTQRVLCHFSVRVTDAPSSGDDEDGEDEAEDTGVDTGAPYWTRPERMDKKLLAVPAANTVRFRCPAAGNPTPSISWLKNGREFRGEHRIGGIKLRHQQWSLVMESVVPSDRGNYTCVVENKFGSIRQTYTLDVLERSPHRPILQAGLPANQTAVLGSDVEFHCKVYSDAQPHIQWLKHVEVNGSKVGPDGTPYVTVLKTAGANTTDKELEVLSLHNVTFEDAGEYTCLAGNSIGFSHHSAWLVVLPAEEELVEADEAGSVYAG
Summary of the method: (§1)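 Biolayer interferometry with biotinylated FGF-R ECD on streptavidin biosensors in PBS pH 7.4, 0.05% Tween-20, 0.01% BSA. Multi-concentration: purified peptide dilution series fitted to a multi-point KD model.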

FGF-R1C ECD = biological target: T2, FGF-R1C ECD (Homo sapiens, UniProt P11362); experiment: biochemical; design: DNA constructs for the extracellular domain (ECD) of human FGF-; HPC4 (C); made in house; host or cells: HEK 293-6E
T2 sequence (P11362 22-376 limits assumed): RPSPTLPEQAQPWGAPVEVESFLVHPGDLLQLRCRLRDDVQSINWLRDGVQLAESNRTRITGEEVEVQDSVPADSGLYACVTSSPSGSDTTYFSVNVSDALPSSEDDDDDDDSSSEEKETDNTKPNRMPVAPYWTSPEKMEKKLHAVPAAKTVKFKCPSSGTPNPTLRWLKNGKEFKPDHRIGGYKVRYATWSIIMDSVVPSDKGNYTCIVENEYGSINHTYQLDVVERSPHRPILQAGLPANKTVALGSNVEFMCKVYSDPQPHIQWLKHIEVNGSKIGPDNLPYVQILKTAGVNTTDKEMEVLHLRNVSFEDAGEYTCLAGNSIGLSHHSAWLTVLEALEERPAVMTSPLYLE
Summary of the method: as §1

FGF-R4 ECD = biological target: T3, FGF-R4 ECD (Homo sapiens, UniProt P22455); experiment: single concentration BLI of crude peptides; conditions: read-out: KD (4)
T3 construct: DNA constructs for the extracellular domain (ECD) of human FGF-; HPC4 (C); made in house; host or cells: HEK 293-6E
T3 sequence (P22455 22-369 limits assumed): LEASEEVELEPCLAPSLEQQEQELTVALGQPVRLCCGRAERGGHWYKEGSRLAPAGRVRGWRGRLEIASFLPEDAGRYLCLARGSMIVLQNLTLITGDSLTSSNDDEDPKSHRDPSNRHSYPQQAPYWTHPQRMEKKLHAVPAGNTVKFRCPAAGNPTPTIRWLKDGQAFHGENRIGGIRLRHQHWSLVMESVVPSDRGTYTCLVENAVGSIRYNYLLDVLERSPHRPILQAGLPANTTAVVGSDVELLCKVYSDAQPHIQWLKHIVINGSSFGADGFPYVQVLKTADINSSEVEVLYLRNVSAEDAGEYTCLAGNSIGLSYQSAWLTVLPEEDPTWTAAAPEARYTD
Summary of the method: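 Streptavidin biosensors carrying biotinylated FGF receptor ECD were immersed in peptide (~1 μM for crude single-point runs, a concentration series for purified peptides) and then in peptide-free buffer. KD was obtained by fitting the BLI association and dissociation curves.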

[1] = crude T18 selection 1 (1:1:1) peptides, single concentration BLI (Table S4)

Compound | pKd (FGF-R3C ECD) | pKd (FGF-R1C ECD) | pKd (FGF-R4 ECD; [1]) | pKd (FGF-R4 ECD; crude NNK peptides, single concentration BLI (Table S3))
CC[C@H](C)[C@@H]1NC(=O)[C@H](CC(N)=O)NC(=O)[C@H](CCCCN)NC(=O)[C@H](Cc2ccc(O)cc2)NC(=O)[C@@H](NC(=O)[C@H](CCSC)NC(C)=O)CSSC[C@@H](C(=O)NCC(=O)N[C@@H](CO)C(=O)NCC(=O)N[C@@H](CO)C(=O)N[C@@H](CC(=O)O)C(=O)N[C@@H](Cc2ccc(O)cc2)C(=O)N[C@@H](CCCCN)C(=O)N[C@@H](CC(=O)O)C(=O)N[C@@H](CC(=O)O)C(=O)N[C@@H](CC(=O)O)C(=O)N[C@@H](CC(=O)O)C(=O)N[C@@H](CCCCN)C(N)=O)NC(=O)[C@H](Cc2ccccc2)NC(=O)[C@H](C(C)C)NC(=O)[C@H](CC(C)C)NC(=O)[C@H](C(C)C)NC(=O)CNC(=O)[C@H](CC(N)=O)NC(=O)[C@H](CC(=O)O)NC1=O (Ac-MCYKNIDNGVLVFCGSGSDYKDDDDK-NH2; disulfide 2-14) | < 5.00 | < 5.00 | 7.85 | 
CSCC[C@H](NC(C)=O)C(=O)N[C@H]1CSSC[C@@H](C(=O)NCC(=O)N[C@@H](CO)C(=O)NCC(=O)N[C@@H](CO)C(=O)N[C@@H](CC(=O)O)C(=O)N[C@@H](Cc2ccc(O)cc2)C(=O)N[C@@H](CCCCN)C(=O)N[C@@H](CC(=O)O)C(=O)N[C@@H](CC(=O)O)C(=O)N[C@@H](CC(=O)O)C(=O)N[C@@H](CC(=O)O)C(=O)N[C@@H](CCCCN)C(N)=O)NC(=O)[C@H](Cc2c[nH]c3ccccc23)NC(=O)[C@H](CC(C)C)NC(=O)[C@H](CCCNC(=N)N)NC(=O)[C@H](Cc2ccc(O)cc2)NC(=O)[C@H](CC(C)C)NC(=O)[C@H](Cc2c[nH]c3ccccc23)NC(=O)[C@H](CC(C)C)NC(=O)[C@H](CC(=O)O)NC(=O)[C@H](CCCCN)NC(=O)[C@H](CO)NC(=O)[C@H](Cc2ccc(O)cc2)NC(=O)[C@H](CCCCN)NC(=O)[C@H](Cc2ccc(O)cc2)NC1=O (Ac-MCYKYSKDLWLYRLWCGSGSDYKDDDDK-NH2; disulfide 2-16) | < 5.00 | 6.30 | 7.66 | 
CC[C@H](C)[C@@H]1NC(=O)[C@H](CC(N)=O)NC(=O)[C@H](Cc2ccc(O)cc2)NC(=O)[C@@H](NC(=O)[C@H](CCSC)NC(C)=O)CSSC[C@@H](C(=O)NCC(=O)N[C@@H](CO)C(=O)NCC(=O)N[C@@H](CO)C(=O)N[C@@H](CC(=O)O)C(=O)N[C@@H](Cc2ccc(O)cc2)C(=O)N[C@@H](CCCCN)C(=O)N[C@@H](CC(=O)O)C(=O)N[C@@H](CC(=O)O)C(=O)N[C@@H](CC(=O)O)C(=O)N[C@@H](CC(=O)O)C(=O)N[C@@H](CCCCN)C(N)=O)NC(=O)[C@H](CCC(=O)O)NC(=O)[C@H](CCCNC(=N)N)NC(=O)[C@H](CCCNC(=N)N)NC(=O)[C@H](C(C)C)NC(=O)[C@H](Cc2ccc(O)cc2)NC(=O)[C@H](CCCCN)NC(=O)[C@H](Cc2ccc(O)cc2)NC(=O)[C@H](Cc2c[nH]c3ccccc23)NC(=O)[C@H](Cc2ccc(O)cc2)NC1=O (Ac-MCYNIYWYKYVRRECGSGSDYKDDDDK-NH2; disulfide 2-15) | < 5.00 | 6.41 | 9.00 | 
CSCC[C@H](NC(C)=O)C(=O)N[C@H]1CSSC[C@@H](C(=O)NCC(=O)N[C@@H](CO)C(=O)NCC(=O)N[C@@H](CO)C(=O)N[C@@H](CC(=O)O)C(=O)N[C@@H](Cc2ccc(O)cc2)C(=O)N[C@@H](CCCCN)C(=O)N[C@@H](CC(=O)O)C(=O)N[C@@H](CC(=O)O)C(=O)N[C@@H](CC(=O)O)C(=O)N[C@@H](CC(=O)O)C(=O)N[C@@H](CCCCN)C(N)=O)NC(=O)[C@@H]2CCCN2C(=O)[C@H](CCC(N)=O)NC(=O)[C@H](Cc2c[nH]c3ccccc23)NC(=O)[C@H](CCC(=O)O)NC(=O)[C@H](CCC(=O)O)NC(=O)[C@H]([C@@H](C)O)NC(=O)[C@H](Cc2c[nH]c3ccccc23)NC(=O)[C@H](Cc2ccccc2)NC(=O)[C@H](CCCNC(=N)N)NC(=O)[C@H]([C@@H](C)O)NC(=O)[C@H](Cc2ccc(O)cc2)NC1=O (Ac-MCYTRFWTEEWQPCGSGSDYKDDDDK-NH2; disulfide 2-14) | < 5.00 | < 5.00 | < 5.00 | 
CSCC[C@H](NC(C)=O)C(=O)N[C@H]1CSSC[C@@H](C(=O)NCC(=O)N[C@@H](CO)C(=O)NCC(=O)N[C@@H](CO)C(=O)N[C@@H](CC(=O)O)C(=O)N[C@@H](Cc2ccc(O)cc2)C(=O)N[C@@H](CCCCN)C(=O)N[C@@H](CC(=O)O)C(=O)N[C@@H](CC(=O)O)C(=O)N[C@@H](CC(=O)O)C(=O)N[C@@H](CC(=O)O)C(=O)N[C@@H](CCCCN)C(N)=O)NC(=O)[C@H](CCC(N)=O)NC(=O)[C@H](Cc2c[nH]cn2)NC(=O)[C@H](Cc2c[nH]c3ccccc23)NC(=O)[C@H](CC(C)C)NC(=O)[C@H](C)NC(=O)[C@H](CCC(=O)O)NC(=O)[C@H](Cc2ccc(O)cc2)NC(=O)[C@@H]2CCCN2C(=O)[C@H](Cc2c[nH]cn2)NC(=O)[C@H](CCCNC(=N)N)NC(=O)[C@H]([C@@H](C)O)NC(=O)[C@H](Cc2ccc(O)cc2)NC1=O (Ac-MCYTRHPYEALWHQCGSGSDYKDDDDK-NH2; disulfide 2-15) | < 5.00 | < 5.00 | < 5.00 | 
CSCC[C@H](NC(C)=O)C(=O)N[C@H]1CSSC[C@@H](C(=O)NCC(=O)N[C@@H](CO)C(=O)NCC(=O)N[C@@H](CO)C(=O)N[C@@H](CCC(=O)O)C(=O)N[C@@H](CCC(=O)O)C(=O)NCC(=O)N[C@@H](CO)C(=O)NCC(=O)N[C@@H](CO)C(=O)N[C@@H](CC(=O)O)C(=O)N[C@@H](Cc2ccc(O)cc2)C(=O)N[C@@H](CCCCN)C(=O)N[C@@H](CC(=O)O)C(=O)N[C@@H](CC(=O)O)C(=O)N[C@@H](CC(=O)O)C(=O)N[C@@H](CC(=O)O)C(=O)N[C@@H](CCCCN)C(N)=O)NC(=O)[C@H](CCCCN)NC(=O)[C@H](CCCCN)NC(=O)[C@H](CCC(N)=O)NC(=O)[C@H](Cc2ccc(O)cc2)NC(=O)[C@H](CCCCN)NC(=O)[C@H](Cc2ccc(O)cc2)NC(=O)[C@H](Cc2c[nH]c3ccccc23)NC(=O)[C@H](CC(C)C)NC(=O)[C@H](C(C)C)NC(=O)[C@H]([C@@H](C)O)NC(=O)[C@H](Cc2ccc(O)cc2)NC1=O (Ac-MCYTVLWYKYQKKCGSGSEEGSGSDYKDDDDK-NH2; disulfide 2-14) | < 5.00 | < 5.00 | 9.00 | 
CSCC[C@H](NC(C)=O)C(=O)N[C@H]1CSSC[C@@H](C(=O)NCC(=O)N[C@@H](CO)C(=O)NCC(=O)N[C@@H](CO)C(=O)N[C@@H](CC(=O)O)C(=O)N[C@@H](Cc2ccc(O)cc2)C(=O)N[C@@H](CCCCN)C(=O)N[C@@H](CC(=O)O)C(=O)N[C@@H](CC(=O)O)C(=O)N[C@@H](CC(=O)O)C(=O)N[C@@H](CC(=O)O)C(=O)N[C@@H](CCCCN)C(N)=O)NC(=O)[C@H](Cc2ccc(O)cc2)NC(=O)[C@H](C(C)C)NC(=O)[C@H](CC(C)C)NC(=O)[C@H](C(C)C)NC(=O)[C@H](CCCCN)NC(=O)[C@H](CC(N)=O)NC(=O)[C@H](CC(C)C)NC(=O)[C@H](Cc2ccccc2)NC(=O)[C@H](CC(N)=O)NC(=O)[C@H](Cc2ccc(O)cc2)NC(=O)[C@H](Cc2ccc(O)cc2)NC1=O (Ac-MCYYNFLNKVLVYCGSGSDYKDDDDK-NH2; disulfide 2-14) | < 5.00 | < 5.00 | 8.10 | 
CSCC[C@H](NC(C)=O)C(=O)N[C@@H](CCSC)C(=O)N[C@@H](CO)C(=O)N[C@@H](Cc1c[nH]cn1)C(=O)N[C@H]1CSSC[C@@H](C(=O)NCC(=O)N[C@@H](CO)C(=O)NCC(=O)N[C@@H](CO)C(=O)N[C@@H](CC(=O)O)C(=O)N[C@@H](Cc2ccc(O)cc2)C(=O)N[C@@H](CCCCN)C(=O)N[C@@H](CC(=O)O)C(=O)N[C@@H](CC(=O)O)C(=O)N[C@@H](CC(=O)O)C(=O)N[C@@H](CC(=O)O)C(=O)N[C@@H](CCCCN)C(N)=O)NC(=O)[C@H](CC(C)C)NC(=O)[C@H](CC(C)C)NC(=O)[C@H](C(C)C)NC(=O)[C@H](CCCCN)NC(=O)[C@H](Cc2ccccc2)NC(=O)[C@H](CC(C)C)NC(=O)[C@H](Cc2c[nH]c3ccccc23)NC1=O (Ac-MMSHCWLFKVLLCGSGSDYKDDDDK-NH2; disulfide 5-13) | < 5.00 | < 5.00 |  | 6.62
